Values of other authors, collected in patent US20140107223A1, “TOPICAL UBIQUINOL SUPPLEMENT SKIN CARE COMPOSITIONS” (WHITEHILL ORAL TECHNOLOGIES, INC., priority 2012, published 2014).

Columns and labels:
[1] = topical once weekly via syringe for six weeks, combined with mechanical debridement
CRP concentrations = conditions: dietary supplementation, healthy baboons
[2] = not given; remark: listed apart in the source
[3] = 150 mg capsule/day for two months
[4] = tested on: human monocytic cellline THP-1; conditions: LPS-stimulated THP-1

| Compound | bleeding on probing [1] | baseline inflammatory status indicated by CRP concentrations (CRP concentrations) | bioavailability versus ubiquinone (oral) | time to steady-state concentrations (oral administration) | time required to reach peak concentration (oral administration, absorption from the gastrointestinal tract) | peak blood values (oral, 150 mg per day in a softgel, within 28 days) | water solubility [2] | effect on oral environment for periodontal disease [3] | effect on inflammatory cytokines and chemokines in vitro [4] |
| --- | --- | --- | --- | --- | --- | --- | --- | --- | --- |
| COC1=C(OC)C(=O)C(C/C=C(\C)CC/C=C(\C)CC/C=C(\C)CC/C=C(\C)CC/C=C(\C)CC/C=C(\C)CC/C=C(\C)CC/C=C(\C)CC/C=C(\C)CCC=C(C)C)=C(C)C1=O [CoQ10, coenzyme Q10] | no bleeding at six weeks | significantly enhances this anti-inflammatory effect | – | – | – | – | – | – | – |
| COc1c(O)c(C)c(C/C=C(\C)CC/C=C(\C)CC/C=C(\C)CC/C=C(\C)CC/C=C(\C)CC/C=C(\C)CC/C=C(\C)CC/C=C(\C)CC/C=C(\C)CCC=C(C)C)c(O)c1OC [UBIQUINOL] | – | – | greater bioavailability than ubiquinone | two | approximately 6 hours | 3.84 µg/mL | less than 0.1 mg/ml | is effective in improving oral environment for periodontal disease | anti-inflammatory effects |
| Vitamin E | – | reduces baseline inflammatory status | – | – | – | – | – | – | – |
